# Paper PMC12104055 (Frontiers in Pharmacology, 2025)
# Where two headings read alike, the source gives them in different places.
# How the values were obtained:
# [1] = Stability in rat plasma under different storage conditions; type: in vitro ADME; details: for Stability RE (%), 4°C / Stability RE (%), Room temperature / Stability RE (%), Three freeze-thaw / Stability RE (%), −80°C: rat plasma; for Stability RE (%), 4°C: 4°C (24 h); for Stability RE (%), Room temperature: room temperature (4 h); for Stability RE (%), −80°C: −80°C long-term storage; for Stability in rat plasma: short-term and long-term storage conditions
# Method: The stability of the method was assessed through the determination of low, medium and high concentration rat plasma quality control samples under various storage conditions. […] The stability of the samples was determined by the precision of measurement results, and the samples were considered stable when the CV% and RE% were both below 15%.
# [2] = Drug interaction study: pharmacokinetics of firmonertinib and AST-5902 in rats with or without nirmatrelvir and ritonavir (paxlovid); type: in vivo, Sprague-Dawley (SD) rats; details: for AUC(0-inf) / AUC(0-t) / Cmax / Tmax / half-life / CL/F / MRT last / MRT inf / Vd/F: male, Sprague-Dawley, rat, plasma, po, 7.2 mg/kg, rat plasma; for CL/F: read-out: CLz/F (converted); for MRT last: read-out: MRT(0-t); for MRT inf: read-out: MRT(0-∞); for Vd/F: read-out: Vz/F; for Difference in main pharmacokinetic data between single-dose and long-term nirmatrelvir and ritonavir groups: P > 0.05
# Method: The experimental animals for pharmacokinetics were eighteen male Sprague-Dawley (SD) rats (6–8 weeks old), weighing 180–220 g, purchased from Beijing Vital River Laboratory Animal Technology Co., Ltd. All animal-related experimental operations and care were performed in accordance with the Guide for the Care and Use of Laboratory Animals and were approved by the Animal Research Ethics Committee of Wenzhou Medical University (wydw2022-0184). All SD rats were kept in an SPF animal laboratory and were provided with adequate feed and water until all rats reached the required body weight for the experiment. […] Eighteen SD rats were randomly and equally divided into three groups of six rats each. Group C rats (long-term administration group) were given 55 mg/kg nirmatrelvir and 20 mg/kg ritonavir by gavage every 12 h for 5 days. Groups B (single dose administration group) and A (control group) were also given the same amount of 0.5% CMC-Na every 12 h for 5 days. Prior to the pharmacokinetic experiments, all rats were fasted for 12 h, but drinking water was not prohibited. On the day of the experiment, 55 mg/kg nirmatrelvir and 20 mg/kg ritonavir were given once by gavage to rats in group B and group C. The same dose of 0.5% CMC-Na was given to group A rats. […] Blood was collected using heparin lithium-anticoagulant tubes and then centrifuged for 10 min at 13,000 rpm at 4°C. Subsequently, the upper plasma fraction was transferred to a clean centrifuge tube and placed in a −80°C refrigerator for storage until detection.
# The pharmacokinetic parameters of three groups were analyzed by single factor analysis of variance using SPSS 28.0 software. A p value of less than 0.05 were considered significant difference between the two groups.
# [3] = set-up: method as in Heng et al., 2021; details: itraconazole (CYP3A4 inhibitor); clinical study; ref Heng et al., 2021; cited from earlier work
# CYP3A4 = tested on: CYP3A4; set-up: method as in Liu et al., 2020; details: ref Liu et al., 2020, cited from earlier work
# [4] = set-up: method as in Zhu et al., 2021; details: therapeutic doses of rifampicin (strong CYP3A4 inducer); clinical study; ref Zhu et al., 2021; cited from earlier work
# [5] = Group A control: single 7.2 mg/kg firmonertinib by gavage alone
# [6] = Group B: single dose 55 mg/kg nirmatrelvir and 20 mg/kg ritonavir, then 7.2 mg/kg firmonertinib by gavage
# [7] = Group C: 5 days twice a day 55 mg/kg nirmatrelvir and 20 mg/kg ritonavir, then 7.2 mg/kg firmonertinib by gavage
# [8] = rats, long-term nirmatrelvir and ritonavir vs firmonertinib monotherapy group
# [9] = rats, single dose nirmatrelvir and ritonavir vs firmonertinib monotherapy group
# [10] = rats, long-term (5 days) nirmatrelvir and ritonavir vs firmonertinib monotherapy group
smiles,measurement,setting,value
C=CC(=O)Nc1cc(Nc2nccc(-c3cn(C)c4ccccc34)n2)c(OCC(F)(F)F)nc1N(C)CCNC [AST-5902],"Stability RE (%), 4°C","[1]; AST-5902 table, 0.2 ng/mL",−1.94%
same,"Stability RE (%), Room temperature","[1]; AST-5902 table, 0.2 ng/mL",4.37%
same,"Stability RE (%), Three freeze-thaw","[1]; AST-5902 table, 0.2 ng/mL",1.93%
same,"Stability RE (%), −80°C","[1]; AST-5902 table, 0.2 ng/mL",0.97%
same,"Stability RE (%), 4°C","[1]; AST-5902 table, 5 ng/mL",−1.36%
same,"Stability RE (%), Room temperature","[1]; AST-5902 table, 5 ng/mL",1.25%
same,"Stability RE (%), Three freeze-thaw","[1]; AST-5902 table, 5 ng/mL",5.50%
same,"Stability RE (%), −80°C","[1]; AST-5902 table, 5 ng/mL",3.06%
same,"Stability RE (%), 4°C","[1]; AST-5902 table, 40 ng/mL",0.00%
same,"Stability RE (%), Room temperature","[1]; AST-5902 table, 40 ng/mL",0.31%
same,"Stability RE (%), Three freeze-thaw","[1]; AST-5902 table, 40 ng/mL",−0.91%
same,"Stability RE (%), −80°C","[1]; AST-5902 table, 40 ng/mL",−0.53%
same,Stability in rat plasma,[1],remain stable
same,AUC(0-inf),[2]; [5],0.405 ± 0.0604 µg·h/mL
same,AUC(0-t),[2]; [5],0.387 ± 0.0582 µg·h/mL
same,Cmax,[2]; [5],0.039 ± 0.00246 µg/mL
same,Tmax,[2]; [5],5.33 ± 1.03 h
same,half-life,[2]; [5],4.94 ± 0.98 h
same,CL/F,[2]; [5],18.1 L/h/kg
same,MRT last,[2]; [5],8.37 ± 0.39 h
same,MRT inf,[2]; [5],9.35 ± 0.4 h
same,Vd/F,[2]; [5],129 ± 35.5 L/kg
same,AUC(0-inf),[2]; [6],0.185 ± 0.147 µg·h/mL
same,AUC(0-t),[2]; [6],0.122 ± 0.015 µg·h/mL
same,Cmax,[2]; [6],0.00979 ± 0.0017 µg/mL
same,Tmax,[2]; [6],8.33 ± 2.94 h
same,half-life,[2]; [6],6.14 ± 4.31 h
same,CL/F,[2]; [6],51.1 L/h/kg
same,MRT last,[2]; [6],8.94 ± 0.62 h
same,MRT inf,[2]; [6],8.73 ± 2.41 h
same,Vd/F,[2]; [6],362 ± 62.9 L/kg
same,AUC(0-inf),[2]; [7],0.125 ± 0.0132 µg·h/mL
same,AUC(0-t),[2]; [7],0.122 ± 0.0128 µg·h/mL
same,Cmax,[2]; [7],0.0102 ± 0.00142 µg/mL
same,Tmax,[2]; [7],8.67 ± 1.63 h
same,half-life,[2]; [7],3.65 ± 0.58 h
same,CL/F,[2]; [7],58.1 L/h/kg
same,MRT last,[2]; [7],9.22 ± 0.19 h
same,MRT inf,[2]; [7],9.7 ± 0.33 h
same,Vd/F,[2]; [7],306 ± 56.7 L/kg
same,Difference in main pharmacokinetic data between single-dose and long-term nirmatrelvir and ritonavir groups,[2]; rats,no significant differences
same,AUC(0-∞) of AST-5902 decreased by,[2]; [8],70%
same,CLz/F of AST-5902 increased by,[2]; [8],3.2 times
same,Cmax of AST-5902 decreased by,[2]; [8],74%
same,Tmax of AST-5902 increased by,[2]; [8],1.62 times
same,Vz/F of AST-5902 increased by,[2]; [8],2.36 times
same,AUC(0-∞) of AST-5902 decreased by,[2]; [9],55%
same,CLz/F of AST-5902 increased by,[2]; [9],2.81 times
same,Cmax of AST-5902 decreased by,[2]; [9],75%
same,Tmax of AST-5902 increased by,[2]; [9],1.56 times
same,Vz/F of AST-5902 increased by,[2]; [9],2.79 times
same,AUC(0-t) of AST-5902 decreased by,"[2]; rats, single-dose and long-term nirmatrelvir and ritonavir groups vs firmonertinib monotherapy group",69%
C=CC(=O)Nc1cc(Nc2nccc(-c3cn(C)c4ccccc34)n2)c(OCC(F)(F)F)nc1N(C)CCN(C)C [firmonertinib],Exposure of firmonertinib on co-administration with itraconazole,[3],significantly increases
same,Main metabolizing enzyme,"CYP3A4; in vitro experiments, to N-demethylated metabolite AST-5902",metabolized mainly by CYP3A4
same,Relation to CYP3A4,CYP3A4; previous studies,both a substrate and an inducer of CYP3A4
same,Exposure of firmonertinib on co-administration with rifampicin,[4],significantly reduced
same,"Stability RE (%), 4°C",[1]; 0.3 ng/mL,−4.98%
same,"Stability RE (%), Room temperature",[1]; 0.3 ng/mL,7.47%
same,"Stability RE (%), 4°C",[1]; 40 ng/mL,2.22%
same,"Stability RE (%), Room temperature",[1]; 40 ng/mL,−0.57%
same,"Stability RE (%), 4°C",[1]; 400 ng/mL,−2.90%
same,"Stability RE (%), Room temperature",[1]; 400 ng/mL,2.63%
same,Stability in rat plasma,[1],remain stable
same,AUC(0-inf),[2]; [5],0.367 ± 0.0897 µg·h/mL
same,AUC(0-t),[2]; [5],0.27 ± 0.0284 µg·h/mL
same,Cmax,[2]; [5],0.0135 ± 0.00443 µg/mL
same,Tmax,[2]; [5],6.33 ± 1.97 h
same,half-life,[2]; [5],39.7 ± 35.7 h
same,CL/F,[2]; [5],20.5 L/h/kg
same,MRT last,[2]; [5],24.5 ± 2.43 h
same,MRT inf,[2]; [5],61.8 ± 44.7 h
same,Vd/F,[2]; [5],1010 L/kg
same,AUC(0-inf),[2]; [6],0.486 ± 0.103 µg·h/mL
same,AUC(0-t),[2]; [6],0.456 ± 0.125 µg·h/mL
same,Cmax,[2]; [6],0.027 ± 0.00975 µg/mL
same,Tmax,[2]; [6],6 ± 2.19 h
same,half-life,[2]; [6],16.2 ± 6.77 h
same,CL/F,[2]; [6],15.3 L/h/kg
same,MRT last,[2]; [6],19.2 ± 2.34 h
same,MRT inf,[2]; [6],28.4 ± 6.88 h
same,Vd/F,[2]; [6],374 ± 209 L/kg
same,AUC(0-inf),[2]; [7],0.458 ± 0.046 µg·h/mL
same,AUC(0-t),[2]; [7],0.421 ± 0.0214 µg·h/mL
same,Cmax,[2]; [7],0.0279 ± 0.00422 µg/mL
same,Tmax,[2]; [7],5 ± 1.1 h
same,half-life,[2]; [7],17.9 ± 5.91 h
same,CL/F,[2]; [7],15.9 L/h/kg
same,MRT last,[2]; [7],19.6 ± 2.48 h
same,MRT inf,[2]; [7],30.3 ± 5.96 h
same,Vd/F,[2]; [7],400 ± 95.8 L/kg
same,Difference in main pharmacokinetic data between single-dose and long-term nirmatrelvir and ritonavir groups,[2]; rats,no significant differences
same,AUC(0-t) of firmonertinib increased by,[2]; [10],1.55 times
same,CLz/F of firmonertinib decreased by,[2]; [10],23%
same,Cmax of firmonertinib increased by,[2]; [10],2.05 times
same,MRT(0-t) of firmonertinib decreased by,[2]; [10],20%
same,MRT(0-∞) of firmonertinib decreased by,[2]; [10],51%
same,Vz/F of firmonertinib decreased by,[2]; [10],61%
same,t1/2 of firmonertinib decreased by,[2]; [10],55%
same,AUC(0-t) of firmonertinib increased by,[2]; [9],1.68 times
same,CLz/F of firmonertinib decreased by,[2]; [9],26%
same,Cmax of firmonertinib increased by,[2]; [9],1.99 times
same,MRT(0-t) of firmonertinib decreased by,[2]; [9],22%
same,MRT(0-∞) of firmonertinib decreased by,[2]; [9],55%
same,Vz/F of firmonertinib decreased by,[2]; [9],64%
same,t1/2 of firmonertinib decreased by,[2]; [9],60%
